Data as given in US9878986B2, “Compounds for selective histone deacetylase inhibitors, and pharmaceutical composition comprising the same” (CHONG KUN DANG PHARMACEUTICAL CORP., priority 2013, dated 2018).
Structures can show the parent of a compound that is named as a salt.

Experiments:
HDAC1 = HDAC1 (Homo sapiens, UniProt Q13547); assay: Test of HDAC activities, HDAC1 Fluorimetric Drug Discovery Assay Kit; assay type: biochemical; design: purchased Enzolifesciences BML-AK511; details: samples at 100, 1000, 10000 nM; 37° C. 60 minutes; fluorescence Ex 390, Em 460; read-out: HDAC inhibitory activities, HDAC1
HDAC1, sequence (Q13547 whole entry): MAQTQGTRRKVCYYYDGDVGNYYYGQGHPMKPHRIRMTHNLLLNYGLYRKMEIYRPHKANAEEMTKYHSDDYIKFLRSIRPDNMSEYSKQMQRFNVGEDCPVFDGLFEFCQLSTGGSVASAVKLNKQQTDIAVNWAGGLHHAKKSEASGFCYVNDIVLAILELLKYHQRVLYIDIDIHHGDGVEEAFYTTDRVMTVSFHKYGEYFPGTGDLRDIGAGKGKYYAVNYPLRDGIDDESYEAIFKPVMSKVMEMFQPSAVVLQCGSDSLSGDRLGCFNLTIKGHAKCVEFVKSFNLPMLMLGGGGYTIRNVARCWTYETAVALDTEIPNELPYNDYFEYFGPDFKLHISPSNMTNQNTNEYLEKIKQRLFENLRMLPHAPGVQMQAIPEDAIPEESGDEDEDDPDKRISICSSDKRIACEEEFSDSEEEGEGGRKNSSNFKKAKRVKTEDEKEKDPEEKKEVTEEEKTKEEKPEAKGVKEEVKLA
Summary of the method: (§1)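 HDAC1 tested at 100, 1000 and 10000 nM; recombinant human HDAC6 at 0.1, 1, 10, 100 and 1000 nM. Reaction 60 min at 37° C, then developer for 30 min at 37° C; fluorescence read at Ex 390/Em 460.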

HDAC 6 = biological target: T1, HDAC 6 (Homo sapiens, UniProt Q9UBN7); assay: Test of HDAC activities, HDAC6 (fluorimetric); assay type: biochemical; design: purchased Calbiochem 382180; details: samples at 0.1, 1, 10, 100, 1000 nM; 37° C. 60 minutes; fluorescence Ex 390, Em 460; read-out: HDAC inhibitory activities, HDAC6
T1 sequence (Q9UBN7 1-1215): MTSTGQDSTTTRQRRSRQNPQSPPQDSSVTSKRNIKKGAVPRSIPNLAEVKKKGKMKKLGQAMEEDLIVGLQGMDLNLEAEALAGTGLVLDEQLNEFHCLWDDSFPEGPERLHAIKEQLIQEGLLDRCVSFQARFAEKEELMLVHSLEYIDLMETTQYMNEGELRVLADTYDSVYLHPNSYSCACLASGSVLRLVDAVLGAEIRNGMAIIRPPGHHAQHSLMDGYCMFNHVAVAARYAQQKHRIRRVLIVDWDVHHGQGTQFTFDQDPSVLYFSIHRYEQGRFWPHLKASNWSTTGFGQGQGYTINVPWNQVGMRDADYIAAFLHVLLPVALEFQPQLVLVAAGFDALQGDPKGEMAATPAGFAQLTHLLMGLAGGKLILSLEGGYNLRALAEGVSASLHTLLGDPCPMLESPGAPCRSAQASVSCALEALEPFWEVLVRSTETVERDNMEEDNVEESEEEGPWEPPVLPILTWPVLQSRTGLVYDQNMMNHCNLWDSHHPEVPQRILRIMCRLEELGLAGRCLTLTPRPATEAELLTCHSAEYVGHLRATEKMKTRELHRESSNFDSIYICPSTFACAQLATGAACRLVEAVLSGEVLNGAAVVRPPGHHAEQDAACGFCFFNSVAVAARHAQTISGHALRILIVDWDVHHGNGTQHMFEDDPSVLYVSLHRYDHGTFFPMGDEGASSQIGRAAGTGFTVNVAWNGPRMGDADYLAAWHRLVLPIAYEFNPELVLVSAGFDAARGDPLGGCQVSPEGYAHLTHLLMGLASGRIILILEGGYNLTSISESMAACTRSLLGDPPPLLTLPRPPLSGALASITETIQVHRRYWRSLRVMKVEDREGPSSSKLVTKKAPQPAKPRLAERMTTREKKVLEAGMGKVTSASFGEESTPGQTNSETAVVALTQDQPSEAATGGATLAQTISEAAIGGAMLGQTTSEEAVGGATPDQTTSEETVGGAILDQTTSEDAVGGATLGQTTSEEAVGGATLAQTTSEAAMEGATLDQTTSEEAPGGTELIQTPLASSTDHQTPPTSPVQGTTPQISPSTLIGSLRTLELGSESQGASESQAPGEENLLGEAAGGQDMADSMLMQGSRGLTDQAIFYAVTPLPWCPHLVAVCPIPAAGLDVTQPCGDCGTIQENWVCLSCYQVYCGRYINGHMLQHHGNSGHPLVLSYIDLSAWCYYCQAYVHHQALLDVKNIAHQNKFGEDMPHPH
Summary of the method: as §1

IC50 (HDAC1) [nM]	IC50 (HDAC 6) [nM]	SMILES
280	7	CCN1CCN(C(=O)N(Cc2ccc(C(=O)NO)cc2)c2ccc(F)c(Cl)c2)CC1 [Compound 479, N-(3-chloro-4-fluorophenyl)-4-ethyl-N-(4-(hydroxycarbamoyl)benzyl)piperazine-1-carboxamide]
1070	18	O=C(NO)c1ccc(CN(C(=O)N2CCN(Cc3ccccc3)CC2)c2ccc(F)c(Cl)c2)cc1 [Compound 480, 4-benzyl-N-(3-chloro-4-fluorophenyl)-N-(4-(hydroxycarbamoyl)benzyl)piperazine-1-carboxamide]
2080	15	COc1ccccc1N1CCN(C(=O)N(Cc2ccc(C(=O)NO)cc2)c2ccc(F)c(Cl)c2)CC1 [Compound 481, N-(3-chloro-4-fluorophenyl)-N-(4-(hydroxycarbamoyl)benzyl)-4-(2-methoxyphenyl)piperazine-1-carboxamide]
680	1	O=C(NO)c1ccc(CN(C(=O)N2CCN(c3ccc(F)cc3)CC2)c2ccc(F)c(Cl)c2)cc1 [Compound 482, N-(3-chloro-4-fluorophenyl)-4-(4-fluorophenyl)-N-(4-(hydroxycarbamoyl)benzyl)piperazine-1-carboxamide]
840	7	O=C(NO)c1ccc(CN(C(=O)N2CCOCC2)c2cccc(C3CCOCC3)c2)cc1 [Compound 483, N-(4-(hydroxycarbamoyl)benzyl)-N-(3-(tetrahydro-2H-pyran-4-yl)phenyl)morpholine-4-carboxamide]
680	2	COc1cccc(N(Cc2ccc(C(=O)NO)cc2)C(=O)N2CCOCC2)c1 [Compound 484, N-(4-(hydroxycarbamoyl)benzyl)-N-(3-methyoxyphenyl)morpholine-4-carboxamide]
860	8	O=C(NO)c1ccc(CN(C(=O)N2CC(F)(F)C2)c2ccc(C(F)(F)F)cc2)cc1 [Compound 485, 3,3-difluoro-N-(4-(hydroxycarbamoyl)benzyl)-N-(4-(trifluoromethyl)phenyl)azetidine-1-carboxamide]
1450	6	O=C(NO)c1ccc(CN(C(=O)N2CCC(O)(c3ccccc3)CC2)c2ccc(C(F)(F)F)cc2)cc1 [Compound 486, 4-hydroxy-N-(4-(hydroxycarbamoyl)benzyl)-4-phenyl-N-(4-(trifluoromethyl)phenyl)piperidine-1-carboxamide]
178	7	O=C(NO)c1ccc(CN(C(=O)N2CCOCC2)c2cccc(Br)c2)c(F)c1 [Compound 487, N-(3-bromophenyl)-N-(2-fluoro-4-(hydroxycarbamoyl)benzyl)morpholine-4-carboxamide]
1170	0.5	O=C(NO)c1ccc(CN(C(=O)N2CCC(O)CC2)c2cccc(Br)c2)c(F)c1 [Compound 488, N-(3-bromophenyl)-N-(2-fluoro-4-(hydroxycarbamoyl)benzyl)-4-hydroxypiperidine-1-carboxamide]
1220	0.5	CC(C)(C)OC(=O)N1CCC(c2cccc(N(Cc3ccc(C(=O)NO)cc3)C(=O)N3CCOCC3)c2)CC1 [Compound 489, tert-butyl 4-(3-(N-(4-(hydroxycarbamoyl)benzyl)morpholine-4-carboxamido)phenyl)piperidine-1-carboxylate]
703	19	CC(=O)N1CCC(c2cccc(N(Cc3ccc(C(=O)NO)cc3)C(=O)N3CCOCC3)c2)CC1 [Compound 490, N-(3-(1-acetylpiperidin-4-yl)phenyl)-N-(4-(hydroxycarbamoyl)benzyl)morpholine-4-carboxamide]
3220	9	CS(=O)(=O)N1CCC(c2cccc(N(Cc3ccc(C(=O)NO)cc3)C(=O)N3CCOCC3)c2)CC1 [Compound 491, N-(4-(hydroxycarbamoyl)benzyl)-N-(3-(1-(methylsulfonyl)piperidin-4-yl)phenyl)morpholine-4-carboxamide]
1260	2	CC(C)NC(=O)N1CCC(c2cccc(N(Cc3ccc(C(=O)NO)cc3)C(=O)N3CCOCC3)c2)CC1 [Compound 492, N-(4-(hydroxycarbamoyl)benzyl)-N-(3-(1-(isopropylcarbamoyl)piperidin-4-yl)phenyl)morpholine-4-carboxamide]
883	11	O=C(NO)c1ccc(CN(C(=O)N2CCOCC2)c2cccc(C3CCNCC3)c2)cc1 [Compound 493, N-(4-(hydroxycarbamoyl)benzyl)-N-(3-(piperidin-4-yl)phenyl)morpholine-4-carboxamide hydrochloride]
692	1	CC(=O)N1CCN(C(=O)N(Cc2ccc(C(=O)NO)cc2)c2cccc(C(F)(F)F)c2)CC1 [Compound 494, 4-acetyl-N-(4-(hydroxycarbamoyl)benzyl)-N-(3-(trifluoromethyl)phenyl)piperazine-1-carboxamide]
3330	11	O=C(NO)c1ccc(CN(C(=O)N2CC[C@@H](F)C2)c2cccc(C(F)(F)F)c2)cc1 [Compound 495, (R)-3-fluoro-N-(4-(hydroxycarbamoyl)benzyl)-N-(3-(trifluoromethyl)phenyl)pyrrolidine-1-carboxamide]
1120	1	O=C(NO)c1ccc(CN(C(=O)N2CC[C@H](F)C2)c2cccc(C(F)(F)F)c2)cc1 [Compound 496, (S)-3-fluoro-N-(4-(hydroxycarbamoyl)benzyl)-N-(3-(trifluoromethyl)phenyl)pyrrolidine-1-carboxamide]
936	2	O=C(NO)c1ccc(CN(C(=O)N2CCC[C@@H]2CO)c2cccc(C(F)(F)F)c2)cc1 [Compound 497, (R)—N-(4-(hydroxycarbamoyl)benzyl)-2-(hydroxymethyl)-N-(3-(trifluoromethyl)phenyl)pyrrolidine-1-carboxamide]
4710	27	O=C(NO)c1ccc(CN(C(=O)N2CCC[C@H]2C(F)(F)F)c2cccc(C(F)(F)F)c2)cc1 [Compound 498, (S)—N-(4-(hydroxycarbamoyl)benzyl)-2-(trifluoromethyl)-N-(3-(trifluoromethyl)phenyl)pyrrolidine-1-carboxamide]
3630	5	O=C(NO)c1ccc(CN(C(=O)N2CCOCC2)c2cccc(CO)c2)cc1 [Compound 499, N-(4-(hydroxycarbamoyl)benzyl)-N-(3-(hydroxymethyl)phenyl)morpholine-4-carboxamide]
1000	3	O=C(NO)c1ccc(CN(C(=O)N2CCOCC2)c2cccc(CF)c2)cc1 [Compound 500, N-(3-(fluoromethyl)phenyl)-N-(4-(hydroxycarbamoyl)benzyl)morpholine-4-carboxamide]
636	12	O=C(NO)c1ccc(CN(C(=O)N2CCOCC2)c2cccc(-c3ccc4c(c3)OCO4)c2)c(F)c1 [Compound 511, N-(3-(benzo[d][1,3]dioxol-5-yl)phenyl)-N-(2-fluoro-4-(hydroxycarbamoyl)benzyl)morpholine-4-carboxamide]
1450	14	O=C(NO)c1ccc(CN(C(=O)N2CCOCC2)c2cccc(C3=CCOCC3)c2)c(F)c1 [Compound 512, N-(3-(3,6-dihydro-2H-pyran-4-yl)phenyl)-N-(2-fluoro-4-(hydroxycarbamoyl)benzyl)morpholine-4-carboxamide]
654	15	O=C(NO)c1ccc(CN(C(=O)N2CCC(O)CC2)c2cccc(-c3ccc4c(c3)OCO4)c2)c(F)c1 [Compound 513, N-(3-(benzo[d][1,3]dioxol-5-yl)phenyl)-N-(2-fluoro-4-(hydroxycarbamoyl)benzyl)-4-hydroxypiperidine-1-carboxamide]
